Experimental findings from US20250064699A1, “CHLORHEXIDINE GLUCONATE-ISOPROPYL ALCOHOL WET WIPE PRODUCT AND PREPARATION METHOD THEREOF” (Dukal, LLC, priority 2021, published 2025) are described below.

This series is described as follows: Stability testing: contents of chlorhexidine gluconate (liquid chromatography) and isopropyl alcohol (gas chromatography) in the wet wipe, long-term experiment. Format: physicochemical. The method, then: The test was performed by chromatography. The content of chlorhexidine gluconate in the 2% chlorhexidine gluconate-isopropyl alcohol solution and the wet wipe was quantitatively detected by liquid chromatography. The content of isopropyl alcohol in the wet wipe was quantitatively detected by gas chromatography. In this test, the contents of chlorhexidine gluconate and isopropyl alcohol were used as evaluation indexes. The contents of chlorhexidine gluconate and isopropyl alcohol were measured by a long-term experiment. Relative standard deviation (RSD) was used to determine the stability of the contents of chlorhexidine gluconate and isopropyl alcohol in the chlorhexidine gluconate-isopropyl alcohol wet wipe. The contents were respectively measured at Month 0, Month 1, Month 3, Month 6, Month 9, Month 12, Month 18 and Month 24. Based on the content at Month 0 (100%), the ratio of the content at the subsequent time points to the content at Month 0 was calculated respectively, as shown in Table 1.

Consider `N=C(NCCCCCCNC(=N)NC(=N)Nc1ccc(Cl)cc1)NC(=N)Nc1ccc(Cl)cc1.O=C(O)[C@H](O)[C@@H](O)[C@H](O)[C@H](O)CO.O=C(O)[C@H](O)[C@@H](O)[C@H](O)[C@H](O)CO` [Chlorhexidine gluconate], for which the “ratio of the content to the content at Month 0” value (from here on “ratio of the content”) runs as follows: (Month 0 (set as 100%)) 100%; (Month 3) 100%; (Month 6) 100%; (Month 9) 100%; (Month 12) 100%; (Month 18) 100%. Besides, under “Month 24”, the “ratio of the content” value is 106.2%^.

Take `CC(C)O` [Isopropyl alcohol]: the “ratio of the content” value runs as follows: (Month 0 (set as 100%)) 100%; (Month 3) 97.5%; (Month 6) 100.8%; (Month 9) 100%; (Month 12) 99.2%; (Month 18) 100.8%. The “ratio of the content” value (Month 24) is 102.5%.
